# Measurements: paper PMC7724566, “Prospects for Clinical Development of Stat5 Inhibitor IST5-002: High Transcriptomic Specificity in Prostate Cancer and Low Toxicity In Vivo” (Cancers, 2020)
# How the values were obtained:
# PDGFRB = biological target: T1, PDGFRB (Homo sapiens, UniProt P09619); experiment: Kinase Seeker luminescence cell-free assay; format: binding; conditions: percent activity of kinase after exposure to IST5 1 µM
# T1 construct: purchased Reaction Biology (JAK1/2/3, TYK2); Luceome Biotechnologies KinaseSeeker (others)
# Description: (§1) For Jak1, Jak2, Jak3 and Tyk2, a radiometric filtration binding assay was conducted by Reaction Biologicals (Malvern, PA, USA) (Table 1). This radiometric assay is a cell-free assay which is based on conventional filter-binding assays, directly measuring kinase catalytic activity toward a specific substrate. For evaluation of the activity of the other kinases, the Kinase Seeker Technology was utilized (Luceome Biotechnologies, Tucson, AZ, USA), which is a luminescence-based cell-free assay. In this assay, the reassembly of luciferase fragments is mediated by the interaction of a kinase with an active site-dependent probe. The competitive displacement of the probe by an inhibitor is measured by a change in luminescence signal. Percent activity of each kinase after exposure to IST5 (1 µM) is presented.
# AURKA = biological target: T2, AURKA (Homo sapiens, UniProt O14965); experiment: Kinase Seeker luminescence cell-free assay; format: binding; conditions: percent activity of kinase after exposure to IST5 1 µM
# T2 construct: purchased Reaction Biology (JAK1/2/3, TYK2); Luceome Biotechnologies KinaseSeeker (others)
# Description: as §1
# FAK = biological target: T3, FAK (Homo sapiens, UniProt Q05397); experiment: Kinase Seeker luminescence cell-free assay; format: binding; conditions: percent activity of kinase after exposure to IST5 1 µM
# T3 construct: purchased Reaction Biology (JAK1/2/3, TYK2); Luceome Biotechnologies KinaseSeeker (others)
# Description: as §1
# AKT1 = biological target: T4, AKT1 (Homo sapiens, UniProt P31749); experiment: Kinase Seeker luminescence cell-free assay; format: binding; conditions: percent activity of kinase after exposure to IST5 1 µM
# T4 construct: purchased Reaction Biology (JAK1/2/3, TYK2); Luceome Biotechnologies KinaseSeeker (others)
# Description: as §1
# CAMKK2 = biological target: T5, CAMKK2 (Homo sapiens, UniProt Q96RR4); experiment: Kinase Seeker luminescence cell-free assay; format: binding; conditions: percent activity of kinase after exposure to IST5 1 µM
# T5 construct: purchased Reaction Biology (JAK1/2/3, TYK2); Luceome Biotechnologies KinaseSeeker (others)
# Description: as §1
# LYN = biological target: T6, LYN (Homo sapiens, UniProt P07948); experiment: Kinase Seeker luminescence cell-free assay; format: binding; conditions: percent activity of kinase after exposure to IST5 1 µM
# T6 construct: purchased Reaction Biology (JAK1/2/3, TYK2); Luceome Biotechnologies KinaseSeeker (others)
# Description: as §1
# LCK = biological target: T7, LCK (Homo sapiens, UniProt P06239); experiment: Kinase Seeker luminescence cell-free assay; format: binding; conditions: percent activity of kinase after exposure to IST5 1 µM
# T7 construct: purchased Reaction Biology (JAK1/2/3, TYK2); Luceome Biotechnologies KinaseSeeker (others)
# Description: as §1
# AKT3 = biological target: T8, AKT3 (Homo sapiens, UniProt Q9Y243); experiment: Kinase Seeker luminescence cell-free assay; format: binding; conditions: percent activity of kinase after exposure to IST5 1 µM
# T8 construct: purchased Reaction Biology (JAK1/2/3, TYK2); Luceome Biotechnologies KinaseSeeker (others)
# Description: as §1
# IGF1R = biological target: T9, IGF1R (Homo sapiens, UniProt P08069); experiment: Kinase Seeker luminescence cell-free assay; format: binding; conditions: percent activity of kinase after exposure to IST5 1 µM
# T9 construct: purchased Reaction Biology (JAK1/2/3, TYK2); Luceome Biotechnologies KinaseSeeker (others)
# Description: as §1
# DDR1 = biological target: T10, DDR1 (Homo sapiens, UniProt Q08345); experiment: Kinase Seeker luminescence cell-free assay; format: binding; conditions: percent activity of kinase after exposure to IST5 1 µM
# T10 construct: purchased Reaction Biology (JAK1/2/3, TYK2); Luceome Biotechnologies KinaseSeeker (others)
# Description: as §1
# TNK2 = biological target: T11, TNK2 (Homo sapiens, UniProt Q07912); experiment: Kinase Seeker luminescence cell-free assay; format: binding; conditions: percent activity of kinase after exposure to IST5 1 µM
# T11 construct: purchased Reaction Biology (JAK1/2/3, TYK2); Luceome Biotechnologies KinaseSeeker (others)
# Description: as §1
# TRKB = biological target: T12, TRKB (Homo sapiens, UniProt Q16620); experiment: Kinase Seeker luminescence cell-free assay; format: binding
# T12 construct: purchased Reaction Biology (JAK1/2/3, TYK2); Luceome Biotechnologies KinaseSeeker (others)
# Description: as §1
# TBK1 = biological target: T13, TBK1 (Homo sapiens, UniProt Q9UHD2); experiment: Kinase Seeker luminescence cell-free assay; format: binding; conditions: percent activity of kinase after exposure to IST5 1 µM
# T13 construct: purchased Reaction Biology (JAK1/2/3, TYK2); Luceome Biotechnologies KinaseSeeker (others)
# Description: as §1
# CAMK1D = biological target: T14, CAMK1D (Homo sapiens, UniProt Q8IU85); experiment: Kinase Seeker luminescence cell-free assay; format: binding; conditions: percent activity of kinase after exposure to IST5 1 µM
# T14 construct: purchased Reaction Biology (JAK1/2/3, TYK2); Luceome Biotechnologies KinaseSeeker (others)
# Description: as §1
# FGFR2 = biological target: T15, FGFR2 (Homo sapiens, UniProt P21802); experiment: Kinase Seeker luminescence cell-free assay; format: binding; conditions: percent activity of kinase after exposure to IST5 1 µM
# T15 construct: purchased Reaction Biology (JAK1/2/3, TYK2); Luceome Biotechnologies KinaseSeeker (others)
# Description: as §1
# FYN = biological target: T16, FYN (Homo sapiens, UniProt P06241); experiment: Kinase Seeker luminescence cell-free assay; format: binding; conditions: percent activity of kinase after exposure to IST5 1 µM
# T16 construct: purchased Reaction Biology (JAK1/2/3, TYK2); Luceome Biotechnologies KinaseSeeker (others)
# Description: as §1
# PLK4 = biological target: T17, PLK4 (Homo sapiens, UniProt O00444); experiment: Kinase Seeker luminescence cell-free assay; format: binding; conditions: percent activity of kinase after exposure to IST5 1 µM
# T17 construct: purchased Reaction Biology (JAK1/2/3, TYK2); Luceome Biotechnologies KinaseSeeker (others)
# Description: as §1
# CWR22Pc cells = experiment: RNA-seq transcriptome, IST5 vs. genetic Stat5 knockdown; format: cell-based, human; conditions: 3 days
# Source text: In order to evaluate the potential of IST5 for further optimization for clinical development, we compared the IST5-induced transcriptome to that of Stat5 genetic knockdown in PC cells. Stat5 expression was inhibited by lenti-viral expression of shStat5 or shCtrl in CWR22Pc cells for 3 days (Figure 2A). CWR22Pc cells were chosen as the model system because the cell line expresses both Stat5 and androgen receptor and mimics the course of disease progression in PC patient. When grown in mice as xenograft tumors, CWR22Pc cells form androgen-dependent tumors which regress in response to androgen deprivation but later recur as Castrate-Resistant Prostate Cancer (CRPC) tumors. In parallel wells, CWR22Pc cells were treated with IST5 or vehicle for 3 days. We performed RNA-seq to profile the gene expression changes and received an average of 22.4 million paired-end clean reads from each sample (Table S5). […] Most importantly, the similarity between the transcriptomes regulated by shStat5 vs. IST5 was remarkably high, with Pearson correlation coefficient ranging from 0.98–0.99 (Figure 2C).
# Figure 2 IST5 show high transcriptional specificity in prostate cancer cells. […]
# Total RNA of each replicate sample was isolated using RNeasy Micro Kit (QIAGEN, Valencia, CA, USA) and reverse transcribed with Super-Script III Reverse Transcriptase (Life Technologies, Brown Deer, WI, USA) following the manufacturer’s instructions. […] RNA quality was assessed by Agilent Bioanalyzer 2100 (Agilent, Santa Clara, CA, USA), and RNA integrity number (RIN) ≥7.5 was qualified for subsequent RNA-seq analysis.
# We performed RNA-seq to evaluate the transcriptomes regulated by IST5 vs. genetic knockdown (lenti-shStat5) of Stat5 with corresponding controls (vehicle or lenti-shCtrl). […] Sequencing data (fastq files) were quantified with a software tool Salmon (version 1.1.0). […] Transcripts with less than 10 median read-counts were filtered out. […] Statistical significance was determined at a FDR threshold <0.01. […]
# [1] = 6 µM, FDR <0.01, fold change >2 or <−2
# T12 sequence (Q16620 32-822): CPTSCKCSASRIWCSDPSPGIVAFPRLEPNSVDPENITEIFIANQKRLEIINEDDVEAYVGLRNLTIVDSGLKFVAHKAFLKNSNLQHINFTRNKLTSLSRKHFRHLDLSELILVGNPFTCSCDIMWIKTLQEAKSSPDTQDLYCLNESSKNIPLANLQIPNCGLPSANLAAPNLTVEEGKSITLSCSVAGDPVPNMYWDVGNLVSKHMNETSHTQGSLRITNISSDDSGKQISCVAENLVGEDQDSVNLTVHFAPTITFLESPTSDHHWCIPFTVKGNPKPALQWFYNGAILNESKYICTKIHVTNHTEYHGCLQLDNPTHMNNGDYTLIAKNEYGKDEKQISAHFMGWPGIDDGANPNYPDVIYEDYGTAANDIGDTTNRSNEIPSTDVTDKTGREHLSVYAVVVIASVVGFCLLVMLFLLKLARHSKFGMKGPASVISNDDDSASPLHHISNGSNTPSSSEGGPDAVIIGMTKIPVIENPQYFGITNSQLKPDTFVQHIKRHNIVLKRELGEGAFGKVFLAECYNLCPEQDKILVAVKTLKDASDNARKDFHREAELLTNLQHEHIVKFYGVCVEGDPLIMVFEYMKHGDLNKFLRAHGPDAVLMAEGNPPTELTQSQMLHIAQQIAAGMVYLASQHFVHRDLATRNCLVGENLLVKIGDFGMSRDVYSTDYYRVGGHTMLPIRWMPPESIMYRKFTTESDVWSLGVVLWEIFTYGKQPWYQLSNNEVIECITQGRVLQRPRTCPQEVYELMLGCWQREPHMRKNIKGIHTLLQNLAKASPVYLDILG
# T11 sequence (Q07912 whole entry): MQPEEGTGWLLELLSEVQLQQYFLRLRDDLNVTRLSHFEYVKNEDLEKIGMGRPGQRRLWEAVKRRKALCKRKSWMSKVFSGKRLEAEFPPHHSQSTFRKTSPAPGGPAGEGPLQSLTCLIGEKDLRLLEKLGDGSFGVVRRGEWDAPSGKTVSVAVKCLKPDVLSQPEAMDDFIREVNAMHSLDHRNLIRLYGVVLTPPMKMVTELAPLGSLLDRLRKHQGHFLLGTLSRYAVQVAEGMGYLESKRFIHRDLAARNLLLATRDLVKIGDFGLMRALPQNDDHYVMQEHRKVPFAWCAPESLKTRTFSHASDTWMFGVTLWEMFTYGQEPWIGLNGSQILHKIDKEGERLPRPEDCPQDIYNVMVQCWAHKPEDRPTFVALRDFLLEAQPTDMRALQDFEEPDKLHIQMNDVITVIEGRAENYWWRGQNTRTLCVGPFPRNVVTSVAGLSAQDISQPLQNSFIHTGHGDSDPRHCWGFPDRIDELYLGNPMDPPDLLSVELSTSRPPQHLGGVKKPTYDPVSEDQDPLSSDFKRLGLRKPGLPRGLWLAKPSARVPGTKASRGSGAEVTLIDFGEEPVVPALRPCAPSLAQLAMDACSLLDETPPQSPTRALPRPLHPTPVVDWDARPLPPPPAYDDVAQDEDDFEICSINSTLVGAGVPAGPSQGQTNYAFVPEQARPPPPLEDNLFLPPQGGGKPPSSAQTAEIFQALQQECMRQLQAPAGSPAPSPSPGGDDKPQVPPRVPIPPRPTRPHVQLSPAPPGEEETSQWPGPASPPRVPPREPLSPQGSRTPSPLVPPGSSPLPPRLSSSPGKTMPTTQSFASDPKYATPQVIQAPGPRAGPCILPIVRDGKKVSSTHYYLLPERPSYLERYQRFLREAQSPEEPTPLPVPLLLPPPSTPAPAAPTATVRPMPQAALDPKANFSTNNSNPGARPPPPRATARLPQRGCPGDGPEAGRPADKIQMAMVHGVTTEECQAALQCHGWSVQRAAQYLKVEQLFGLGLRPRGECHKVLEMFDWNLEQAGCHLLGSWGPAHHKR
# T13 sequence (Q9UHD2 whole entry): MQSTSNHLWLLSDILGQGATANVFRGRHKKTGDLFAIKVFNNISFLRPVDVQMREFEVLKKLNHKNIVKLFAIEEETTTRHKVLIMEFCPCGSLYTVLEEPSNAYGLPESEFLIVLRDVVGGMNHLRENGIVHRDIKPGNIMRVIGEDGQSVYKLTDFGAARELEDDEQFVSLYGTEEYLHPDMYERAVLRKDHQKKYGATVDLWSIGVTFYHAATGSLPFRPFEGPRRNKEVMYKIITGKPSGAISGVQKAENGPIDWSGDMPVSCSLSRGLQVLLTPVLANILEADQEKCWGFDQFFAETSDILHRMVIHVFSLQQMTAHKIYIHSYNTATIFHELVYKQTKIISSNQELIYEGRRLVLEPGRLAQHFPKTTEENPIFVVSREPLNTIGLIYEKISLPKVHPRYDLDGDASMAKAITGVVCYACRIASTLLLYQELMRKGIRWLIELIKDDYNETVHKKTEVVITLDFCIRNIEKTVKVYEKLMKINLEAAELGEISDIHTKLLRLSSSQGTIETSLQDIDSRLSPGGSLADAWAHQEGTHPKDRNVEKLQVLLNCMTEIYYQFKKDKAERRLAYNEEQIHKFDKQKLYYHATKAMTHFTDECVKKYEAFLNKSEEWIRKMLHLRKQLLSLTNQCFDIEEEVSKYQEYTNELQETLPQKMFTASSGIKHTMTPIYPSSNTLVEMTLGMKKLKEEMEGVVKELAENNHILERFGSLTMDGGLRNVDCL
# T4 sequence (P31749 whole entry): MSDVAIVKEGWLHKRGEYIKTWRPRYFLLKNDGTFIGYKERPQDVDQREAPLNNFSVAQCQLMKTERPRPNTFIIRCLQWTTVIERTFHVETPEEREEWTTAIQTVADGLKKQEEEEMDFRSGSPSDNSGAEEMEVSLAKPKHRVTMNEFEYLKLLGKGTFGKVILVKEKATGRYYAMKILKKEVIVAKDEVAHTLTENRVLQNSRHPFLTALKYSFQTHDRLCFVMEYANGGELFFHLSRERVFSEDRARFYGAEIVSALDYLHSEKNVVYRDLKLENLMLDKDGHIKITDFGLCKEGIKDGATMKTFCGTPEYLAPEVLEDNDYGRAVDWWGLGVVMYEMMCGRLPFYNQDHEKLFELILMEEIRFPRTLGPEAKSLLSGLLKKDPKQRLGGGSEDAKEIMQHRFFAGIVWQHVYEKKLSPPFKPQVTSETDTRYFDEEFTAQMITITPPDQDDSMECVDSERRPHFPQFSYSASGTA
# T2 sequence (O14965 whole entry): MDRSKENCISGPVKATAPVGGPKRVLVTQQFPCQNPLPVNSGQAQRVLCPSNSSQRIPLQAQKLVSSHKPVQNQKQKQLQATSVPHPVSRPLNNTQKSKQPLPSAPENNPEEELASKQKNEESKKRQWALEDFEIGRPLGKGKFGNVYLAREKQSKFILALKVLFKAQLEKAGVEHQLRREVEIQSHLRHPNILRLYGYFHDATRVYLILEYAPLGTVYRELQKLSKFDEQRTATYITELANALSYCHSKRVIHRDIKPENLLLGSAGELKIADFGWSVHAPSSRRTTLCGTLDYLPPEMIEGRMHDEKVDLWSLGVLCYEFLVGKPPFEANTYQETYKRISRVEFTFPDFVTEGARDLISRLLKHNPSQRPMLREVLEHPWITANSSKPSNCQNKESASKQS
# T16 sequence (P06241 whole entry): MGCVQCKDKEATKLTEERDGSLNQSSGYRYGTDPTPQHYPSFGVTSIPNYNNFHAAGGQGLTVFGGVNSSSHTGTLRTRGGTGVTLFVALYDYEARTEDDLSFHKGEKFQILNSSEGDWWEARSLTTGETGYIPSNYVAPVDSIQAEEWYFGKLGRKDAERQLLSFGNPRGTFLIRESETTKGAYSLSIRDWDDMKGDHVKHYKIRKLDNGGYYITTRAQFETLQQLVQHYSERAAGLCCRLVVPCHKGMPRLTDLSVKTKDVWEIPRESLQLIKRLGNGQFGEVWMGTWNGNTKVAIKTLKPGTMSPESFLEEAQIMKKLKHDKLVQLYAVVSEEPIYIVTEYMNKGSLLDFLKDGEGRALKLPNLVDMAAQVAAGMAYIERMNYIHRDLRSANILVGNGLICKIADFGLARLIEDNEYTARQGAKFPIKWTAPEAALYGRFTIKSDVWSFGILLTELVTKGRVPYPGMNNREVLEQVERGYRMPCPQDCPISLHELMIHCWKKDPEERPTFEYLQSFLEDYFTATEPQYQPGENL
# T5 sequence (Q96RR4 whole entry): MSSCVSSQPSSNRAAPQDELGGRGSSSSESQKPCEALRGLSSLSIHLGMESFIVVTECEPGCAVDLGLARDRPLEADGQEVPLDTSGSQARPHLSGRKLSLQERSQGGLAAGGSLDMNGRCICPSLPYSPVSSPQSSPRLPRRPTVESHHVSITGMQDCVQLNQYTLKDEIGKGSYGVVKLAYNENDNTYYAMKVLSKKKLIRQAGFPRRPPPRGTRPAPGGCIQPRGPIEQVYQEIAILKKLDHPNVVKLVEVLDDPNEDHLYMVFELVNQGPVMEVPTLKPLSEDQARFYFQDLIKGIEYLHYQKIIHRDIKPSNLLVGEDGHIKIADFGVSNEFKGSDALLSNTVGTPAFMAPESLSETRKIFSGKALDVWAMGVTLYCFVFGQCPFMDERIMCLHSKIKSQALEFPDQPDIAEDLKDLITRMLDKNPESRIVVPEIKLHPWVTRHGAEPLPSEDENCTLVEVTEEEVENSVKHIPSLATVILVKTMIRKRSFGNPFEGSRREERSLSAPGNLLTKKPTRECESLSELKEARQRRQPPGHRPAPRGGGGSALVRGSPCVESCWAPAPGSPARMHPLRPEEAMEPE
# T14 sequence (Q8IU85 whole entry): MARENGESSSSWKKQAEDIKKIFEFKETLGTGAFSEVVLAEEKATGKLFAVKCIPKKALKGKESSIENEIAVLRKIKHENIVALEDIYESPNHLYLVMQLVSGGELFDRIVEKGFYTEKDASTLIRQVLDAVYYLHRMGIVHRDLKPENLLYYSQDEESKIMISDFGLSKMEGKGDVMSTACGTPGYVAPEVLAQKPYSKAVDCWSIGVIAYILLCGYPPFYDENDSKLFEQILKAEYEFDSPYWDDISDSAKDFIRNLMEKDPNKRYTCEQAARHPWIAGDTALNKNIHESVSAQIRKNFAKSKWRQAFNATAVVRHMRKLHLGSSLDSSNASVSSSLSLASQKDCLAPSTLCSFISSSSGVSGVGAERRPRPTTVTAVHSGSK
smiles,measurement,setting,value
O=P(O)(O)OCC1OC(n2cnc3c(NCc4ccccc4)ncnc32)C(O)C1O (stereo not drawn) [IST5],Activity,PDGFRB,78.4%
same,Activity,AURKA,85.3%
same,Activity,FAK,99.0%
same,Activity,AKT1,100.0%
same,Activity,CAMKK2,100.0%
same,Activity,LYN,90.4%
same,Activity,LCK,88.9%
same,Activity,AKT3,95.8%
same,Activity,IGF1R,100.0%
same,Activity,DDR1,89.3%
same,Activity,TNK2,98.3%
same,Activity,"TRKB; TRKB, percent activity of kinase after exposure to IST5 1 µM",89.4%
same,inhibitory activity on TrkB,TRKB; Table 1,no inhibitory activity
same,Activity,TBK1,92.8%
same,Activity,CAMK1D,92.0%
same,Activity,FGFR2,85.7%
same,Activity,FYN,95.8%
same,Activity,PLK4,85.8%
same,transcripts down-regulated,CWR22Pc cells; [1],765
same,transcripts upregulated,CWR22Pc cells; [1],324
same,Pearson correlation coefficient of transcriptomes regulated by shStat5 vs. IST5,CWR22Pc cells; IST5 6 µM,0.98–0.99
